Where two headings read alike, the source gives them in different places.

Series [1] deals with endotoxin induced acute lung injury in mice. Briefly: Inhibitory effect on endotoxin induced acute lung injury in mice. Format: in vivo, ICR mice. Particulars: Mus musculus, oral 10 mg/Kg at 1.5 hr before and 4.5~5.0 hr after LPS (25 μg/site), BAL fluid at 19~20 hrs. How it is done: ICR mice (25~30 g, .male., n=7) were used.
The test compounds were suspended at 0.1% in 0.5% sodium carboxymethylcellulose-saline.
Oral administration of the test compounds were given at 10 mg/Kg at 1.5 hr before an intratracheal instillation of LPS (E.coli, 055:B5, Difico, 25 μg/site). After sodium pentobarbital anesthetized, LPS dissolved in sterile saline was instilled intratracheally via a ventral neck in the throat incisionusing with a 250 μl syringe attached to a 27-gauge needle.
The throat incisions were sutured with surgical threads, and PI-compound was administered with the same mannner as described above 4.5~5.0 hr after LPS instillation.
Up 19~20 hrs after LPS instillation, animals were euthanized by an i.p. pentobarbital overdose, each animal trachea was reexposed and the ventral neck region was small incised.
A 10 cm length of small-diameter (O.D=0.5 mm) polyethylene catheter inserted and held in place using surgical suture. The lung was then lavaged with a single 500 μl sterile saline using a 1 ml syringe by gently expanding the lung and then withdrawing the saline. The same operation was repeated 6 times, yielding a final volume of 3 ml bronchoalveolar lavage (BAL) fluid from each animal.
Evaluation of testing compounds were expressed as inhibitory percent of hemorrhage and leukocyte infiltration in the lung of each animals.
Estimation for hemorrhage:
Red blood cells were bursted with adding 50 μl KCN solution (0.33 %) per 1 ml of BAL fluid, and then the amount of blood in each BAL fluid samples were calculated from a hemoglobin standard curve.
Estimation of leukocyte infiltrations:
(§1) BAL fluid was diluted to 100 fold with a balanced electrolyte solution and KCN solution (0.33%) was added to the diluted BAL fluid for lysis of contaminating red blood cells.
Leukocyte number was determined from the average of the three times count using a particle counter.
The inhibitory effect of testing compounds were calculated from thefollowing equation:
Inhibitory percent=[1-(The average value of the test compound group)/(The
average value of the control group)]×100
The control animals were dosed orally with the same amount of the vehicle before and after intratracheal instillation of LPS and were operated with the same manner as the animals tested with the test compounds.

In the next series the target is T1, human sputum elastase (Homo sapiens, UniProt P08246).
T1 sequence (P08246 30-247 limits assumed): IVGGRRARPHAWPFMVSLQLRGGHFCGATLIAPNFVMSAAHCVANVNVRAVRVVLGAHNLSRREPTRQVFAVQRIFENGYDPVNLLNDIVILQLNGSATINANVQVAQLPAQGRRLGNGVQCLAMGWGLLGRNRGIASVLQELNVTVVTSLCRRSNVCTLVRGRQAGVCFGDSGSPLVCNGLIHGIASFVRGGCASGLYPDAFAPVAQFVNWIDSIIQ
In words: Inhibitory effect on elastase (human sputum), spectrophotometric assay with MeOSuc-Ala-Ala-Pro-Val-pNA. The class given is biochemical.

Series [2] deals with pancreatic elastase induced acute lung injury in mice. Briefly: Inhibitory effect on pancreatic elastase induced acute lung injury in mice. The class given is in vivo, ICR mice. Particulars: oral 10 mg/Kg at 3.5 hr before and 4.5~5.0 hr after P. elastase (5 μg/site); BAL fluid at 20 hrs. How it is done:
ICR mice (25~30 g, .male., n=7~8) were used.
The compound to be evaluated was suspended in 0.5% sodium carboxymethylcellulose-saline.
Oral administration of the test compound was given at 10 mg/Kg at 3. 5 hr before an intratacheal instillation of P. elastase (5 μg/site). After sodium pentobarbital anesthetized, sterile saline containing P. elastase was instilled intratracheally via ventral neck in the throat incisions using a 250 μl syringe attached to a 27-gauge needle.
The throat incisions were closed with surgical suture, and test compounds were administered with the same manner as described above at 4.5~5.0hr after an intratracheal instillation of P. elastase.
At 20 hrs after an intratracheal instillation of P. elastase, animalz were euthanized by an i.p. pentobarbital overdose, each animal trachea was reexposed and the ventral nech region was small incised. A 10 cm length of small-diameter (O.D=0.5 mm) polyethylene catheter inserted and held in place using surgical suture. The lung were then lavaged with 500 μl sterile saline using a 1 ml syringe by gently expanding the lung and then withdrawing the saline.
The same operation was repeated 6 times, yielding in a final volume of 3 ml bronchoalveolar lavage (BAL) fluid from each animal.
The test compounds were evaluated as a inhabitory percent of hemorrhage and leukocyte number in the BAL fluid from each animal.
Operation for hemorrhage and leukocyte number assay;
Red blood cells were bursted with adding 50 μl KCN solution (0.33%) per 1 ml BAL fluid. The amount of blood in each BAL fluid sample was calculated from a hemoglobin standard curve.
as §1
Leukocyte number was determined by the average of the three times count using a particle counter.
Inhibitory effects of the test compounds on hemorrhage and leukocyte infiltration were calculated from the following equation: Inhibitory percent=[1-(The average value of test compound
group)/(The average value of the control group)]×100
The control animals were dosed orally with the same amount of vehicle before and after intratracheal instillation of P. elastase, and it were treated with the same manner as the test compound group.

The nature of series [3]: Cytotoxicity test (MTT, three days). Format: cell-based. The settings on record: mouse, l1210 cells, read-out: Survival rate; for viability at 72 h, 1 µM: final concentration 1 μM; for viability at 72 h, 5 µM: final concentration 5 μM; for viability at 72 h, 10 µM: final concentration 10 μM. The protocol:
L1210 (lymphocytic leukemia, mouse) cells in a logarithmic growth phase were collected and washed twice with HBSS (Hanks' balanced salt solution). The L1210 cells were resuspended at 5.0×10^4 cells/ml in RPMI 1640 medium containing 10% heat-inactivated fetal bovine serum. The cell suspension was dispensed in 100 μl aliquots into 96 well multi-plate. Each of compounds to be tested was dissolved in dimethylsulfoxide at a concentration of 10 mM. The solutions were stepwise diluted with RPMI 1640 solution containing 10% heat-inactivated fetal bovine serum. Each of the diluted samples was dispensed in an amount of 10 μl well in the 96 well multi-plate containing L1210 cells and incubated for three days at 37° C. in humidified 5% CO2 -air mixture. To each of the wells, 10 μl of MTT (3-(4,5-dimethylthiazol-2-yl)-2,5-diphenyltetrazolium bromide)(5 mg/ml in phosphate buffer free of Ca^2+ and Mg^2+) was added. Cultivation was continued for additional five hours at 37° C. in humidified 5% CO2 -air mixture. To each of the wells, 100 μl of 20% SDS (sodium dodecyl sulfate) in 0.01N HCl was added to solubilize the MTT formazan.
Absorbance was measured at 630 nm as a reference wavelength and 570 nm as a measuring wavelength using Corona Electric MTP22 Microplate Photometer. The measurement was conducted three times for each of the samples to obtain an average value and a standard deviation. Survival rate was calculated by the following equation:
Survival rate (5)=[(absorbance of test sample)/(absobance of […]

Series [4] has as its target T2, human neutrophil elastase (Homo sapiens, UniProt P08246).
T2 construct: using elastase from human neutrophil or human sputum; from tissue; host or cells: human neutrophil
T2 sequence (P08246 30-247 limits assumed): T1 sequence (P08246 30-247 limits assumed)
Briefly: Inhibitory effect on elastase (human neutrophil), spectrophotometric assay with MeOSuc-Ala-Ala-Pro-Val-pNA. The class given is biochemical.
Experimental: (§2) Namely, it is a spectrophotometric assay using the synthesized substrate, methoxysuccinyl-alanyl-alanyl- prolyl-valyl-p-nitroanilide(MeOSuc-Ala-Ala-Pro-Val-pNA, Cambridge research biochemical Co.) which has high specificity on neutrophil elastase.
(§3) 20 μl of a test compound of various concentrations and 20 μl of enzyme solution (13 unit/ml) were added to 400 μl of 0.1M sodium phosphate buffer (pH 8.0). The mixture was incubated at 37° C. for 5 min, and then 20 μl of the substrate was added to the mixture in a final volume of 460 μl. The reaction was conducted by incubating thus obtained mixture at 37° C. for 20 min. The reaction was stopped by the addition of 300 μl of 20% acetic acid into the reaction mixture, and then p-nitroanilide released was measured by the spectrophotometrically at 405 nm.
(§4) Inhibition percents of the test compounds were calculated by the following equation:
(§5) Inhibition %=[1-(OD 405 nm value of the testing sample-background)/(OD 405 nm value of the control-background)]×100

Series [5] deals with endotoxin-induced lung disorders. Particulars: The Course of Medical Science, 1992, 160, No. 4, pp. 257-258; cited from earlier work.
Setting [6] is: Leukocyte, read-out: Inhibitory percent of leukocyte infiltration.
Where [7] appears, read: read-out: Inhibitory percent of hemorrhage.
Setting [8] is: S: human sputum elastase, pH 8.0, 37° C., read-out: IC50.
[9] abbreviates: N: human neutrophil elastase, pH 8.0, 37° C., read-out: IC50.

Experimental for human sputum elastase: as §2, §3, §4, §5

In general, IC50 refers to the concentration that inhibits the measured activity by half. Consider `CN(C)c1ccc(Cn2nnc(-c3ccc(OC(=O)C(C)(C)C)c(N(C)C)c3)n2)cc1` [Example 7, 2-Dimethylamino-4-[2-[4-(dimethylamino)benzyl]tetrazol-5-yl]phenyl pivalate], for which, in series [1] (setting [6]), the inhibition in vivo at 10 mg/kg was found to be 82.1%. Besides, the inhibition in vivo at 10 mg/kg in series [1] (setting [7]) turned out to be 88.5%. Besides, the IC50 on human sputum elastase (setting [8]) came out at 540 nM. Also, in series [2], the “Inhibitory percent of hemorrhage” value was 23.6% and the “Inhibitory percent of leukocyte infiltration” value is recorded as 26.1%. In addition, in series [3], the viability at 72 h, 1 µM is 97%; the viability at 72 h, 5 µM was 96.1%; the viability at 72 h, 10 µM worked out at 88.3%.

`CN(C)c1ccc(Cn2nnc(-c3ccc(OC(=O)C(C)(C)C)cc3)n2)cc1` [Example 16, 4-[2-[4-(Dimethylamino)benzyl]tetrazol-5-yl]phenyl pivalate]: the inhibition in vivo at 10 mg/kg in series [1] (setting [6]) turned out to be 88.2%. Besides, the inhibition in vivo at 10 mg/kg in series [1] (setting [7]) came to 84.9%. Moreover, the IC50 in series [4] (setting [9]) came to 30 nM. For the same compound, the IC50 on human sputum elastase (setting [8]) was 150 nM. In series [2], the “Inhibitory percent of hemorrhage” value came to 44.0% and the “Inhibitory percent of leukocyte infiltration” value worked out at 49.0%. Further, in series [3], the viability at 72 h, 1 µM came out at 94.2%; the viability at 72 h, 5 µM was 103%; the viability at 72 h, 10 µM stood at 104%.

`CC(C)c1ccc(Cn2nnc(-c3ccc(OC(=O)C(C)(C)C)cc3)n2)cc1` [Example 19, 4-[2-(4-Isopropylbenzyl)tetrazol-5-yl]phenyl pivalate]: the inhibition in vivo at 10 mg/kg is 65.6% in series [1] (setting [6]) and 33.8% in series [1] (setting [7]). Also, the IC50 in series [4] (setting [9]) came out at 42 nM; at human sputum elastase (setting [8]), 510 nM. The “Inhibitory percent of hemorrhage” value in series [2] is recorded as 76.8%. Besides, in series [2], the “Inhibitory percent of leukocyte infiltration” value was 14.1%.

Regarding `CC(C)(C)C(=O)Oc1ccc(-c2nnn(Cc3ccncc3)n2)cc1` [Example 35, 4-[2-(4-Pyridylmethyl)tetrazol-5-yl]phenyl pivalate], the IC50 on human sputum elastase (setting [8]) is 14 nM. In series [2], the “Inhibitory percent of hemorrhage” value came to 71.5% and the “Inhibitory percent of leukocyte infiltration” value was found to be 45.1%. In series [3], the viability at 72 h, 1 µM was 95.2%; the viability at 72 h, 5 µM is 110%; the viability at 72 h, 10 µM turned out to be 99.1%.

With `COc1ccc(COCCCCn2nnc(-c3ccc(OC(=O)C(C)(C)C)cc3)n2)cc1` [Example 42, 4-[2-[4-(4-Methoxybenzyloxy)butyl]tetrazol-5-yl]phenyl pivalate], the inhibition in vivo at 10 mg/kg in series [1] (setting [6]) worked out at 64.1%; in series [1] (setting [7]) it was 39.4%. Further, the IC50 in series [4] (setting [9]) came to 19 nM; on human sputum elastase (setting [8]), 22 nM.

`CN(C)Cc1ccc(Cn2nnc(-c3ccc(OC(=O)C(C)(C)C)cc3)n2)cc1` [Example 47, 4-[2-[4-(Dimethylaminomethyl)benzyl]tetrazol-5-yl]phenyl pivalate]: the inhibition in vivo at 10 mg/kg turned out to be 61.5% in series [1] (setting [6]) and 48.6% in series [1] (setting [7]). On human sputum elastase (setting [8]), the IC50 stood at 140 nM.

Consider `CC(C)(C)C(=O)Oc1ccc(-c2nnn(C(C(=O)OCc3ccccc3)c3ccccc3)n2)cc1` (stereo not drawn) [Example 51, 4-[2-[α-(Benzyloxycarbonyl)benzyl)tetrazol-5-yl]phenyl pivalate], for which the inhibition in vivo at 10 mg/kg in series [1] (setting [6]) came out at 20.5%; in series [1] (setting [7]), 57%. At human sputum elastase (setting [8]), the IC50 was determined as 38 nM.

Consider `CC(C)(C)C(=O)Oc1ccc(-c2nnn(Cc3ccc(C(=O)N4CCC[C@H]4C(=O)O)cc3)n2)cc1` [Example 59, N-[4-[5-(4-pivaloyloxyphenyl)tetrazol-2-ylmethyl]benzoyl]-L-Proline], for which the inhibition in vivo at 10 mg/kg in series [1] (setting [6]) was determined as 58.8%; in series [1] (setting [7]) it was 81.5%. Moreover, the half-inhibitory concentration (IC50) on human sputum elastase (setting [8]) came to 40 nM.

As for `CC(C)(C)C(=O)Oc1ccc(-c2nnn(CCOC(=O)c3ccc(NC(=N)N)cc3)n2)cc1` [Example 94, 4-[2-[2-(4-Guanidinobenzoyloxy)ethyl]tetrazol-5-yl]phenyl pivalate Acetate], the inhibition in vivo at 10 mg/kg was 51.8% in series [1] (setting [6]) and 36.6% in series [1] (setting [7]). In series [4], this compound displayed an IC50 of 96 nM.

In the case of `CC(=O)O.CC(C)(C)C(=O)Oc1ccc(-c2nnn(CCNC(=O)c3ccc(NC(=N)N)cc3)n2)cc1` [Example 95, 4-[2-[2-(4-Guanidinobenzoylamino)ethyl]tetrazol-5-yl]phenyl pivalate Acetate], the inhibition in vivo at 10 mg/kg in series [1] (setting [6]) was 79.6%. Also, the inhibition in vivo at 10 mg/kg in series [1] (setting [7]) came out at 62.3%. Moreover, the IC50 against human sputum elastase came to 250 nM. For the same compound, in series [2], the “Inhibitory percent of hemorrhage” value worked out at 15.2% and the “Inhibitory percent of leukocyte infiltration” value is given as 30.2%. Further, in series [3], the viability at 72 h, 1 µM came out at 103%; the viability at 72 h, 5 µM is 109%; the viability at 72 h, 10 µM was 107%.

For the compound `CC(C)(C)C(=O)Oc1ccc(S(=O)(=O)Nc2ccccc2C(=O)NCC(=O)O)cc1` [ONO-5046], the “effect of inhibiting endotoxin-induced lung disorders (in words)” value in series [5] is “shows an effect of inhibiting endotoxin-induced lung disorders”.

The record behind these values is patent publication US5602161A, “Tetrazolylphenyl pivalate derivatives and medicinal composition containing the same as effective component” (Wakamoto Pharmaceutical Co., Ltd., priority 1994, dated 1997).
